Assay results published in PMC8201324, “Pyrazoles and Pyrazolines as Anti-Inflammatory Agents” (Molecules, 2021).
Marks after values point to notes of the source that are not given here.

How the values were obtained:
[1] = Experimental determination of lipophilicity as RM values (RP-TLC); format: physicochemical; parameters: key: RM = log[(1/Rf) − 1] from RP-TLC Rf values; conditions: methanol/water 70/30 v/v, 24 °C, average of at least five measurements
Excerpt: Lipophilicity is the key physicochemical parameter of a bioactive molecule, linking solubility, ligand-target binding interactions and membrane permeability with absorption, distribution, bioavailability, metabolism and elimination (ADME) and toxicological effects, crucial for its biological activity. The reverse phase thin layer chromatography (RPTLC) method was used for the experimental determination of the lipophilic character of the synthesized compounds as RM values (Table 2). Lipophilicity was also theoretically calculated as clog P values, using the CLOGP Program of Biobyte Corp. and as LPSP-lipophilicity values through Spartan v.5.1.3. (Wavefunction Inc., Irvine, CA, USA). According to the calculated clog P values, as well as LPSP, the most lipophilic compounds were the compounds 2c, 2d, 2e and 2g. This observation was supported by the RM values (with the exception of 2g).
Lipophilicity as RM values was determined through reversed phase TLC (RP-TLC) on silica gel plates impregnated with 5% (v/v) liquid paraffin in light petroleum ether. Methanol/water mixture (70/30, v/v) was used a mobile phase. Closed chromatography tanks saturated with the mobile phase at 24 °C were used for the development of the plates while the spots were detected under UV light. For the determination of RM values, five individual measurements of Rf values were recorded, and the RM values were derived from the equation RM = log [(1/Rf) − 1] [42, 43] (Table 2).

[2] = Reducing activity of the stable radical DPPH; format: biochemical
Description: The novel derivatives were studied for their interaction with the stable 2,2-diphenyl-1-picrylhydrazyl free radical (DPPH) at concentrations 50 µM, 100 µM, 200 µM and after 20 and 60 min (Table 3). This assay is based on the reduction of the DPPH by transferring an electron from the antioxidant. […] However, it seems that the interaction is dependent on the concentration and on the reaction time. From this point of view, it can be concluded that the acetyl pyrazolyl derivatives 2c and 2f seem to present the highest scavenging activities. An increase in concentration favors the activity. […] As for compounds 2a, 2b, 2c and 2f, activity seems to be time dependent at 200 µM. […] The presence of a chlorine group in 2e pyrazoline leads to an activity increase (compared to 2d) in concentration 200 µM. The acetyl derivative 2f presents better activity than 2b at 200 µM.
(§1) A stock solution (1% DMSO in the appropriate buffer with the tested compound diluted under sonication) was prepared for the in vitro assays from which several dilutions were made with the appropriate buffer. The in vitro experiments were performed at least in triplicate, and the standard deviation of absorbance was less than 10% of the mean.
A stock solution (10 mM) of the novel derivatives in DMSO was prepared and an equal volume of it was added to a solution of DPPH in absolute ethanol to reach final concentrations 50, 100 µM and 200 µM. The absorbance was recorded at 517 nm, after 20 and 60 min at room temperature (Table 3).

[3] = Inhibition of linoleic acid lipid peroxidation (AAPH); format: biochemical
Description: For the lipid peroxidation study, 2,2′-azobis(2-amidinopropane) hydrochloride (AAPH) was used for the generation of peroxyl radicals. The generation of the conjugated diene hydroperoxide derived from the oxidation of sodium linoleate in an aqueous solution was recorded at 234 nm. The compounds presented high anti-lipid peroxidation activity (78–100%) (Table 4). Pyrazolines 2a and 2b present lower anti-lipid peroxidation activity (89% and 78% respectively).
as §1
AAPH was used as free radical initiator of alkylperoxyl radicals. The ability of the compounds to prevent the oxidation of linoleic acid sodium salt from alkylperoxyl radicals was recorded at 234 nm. Trolox was used as reference (93%) (Table 4).

[4] = ABTS+ decolorization assay for antioxidant activity; format: biochemical
Excerpt: Pyrazolines 2d and 2e which are the most lipophilic compounds, showing antioxidant activity using the ABTS radical cation (ABTS^•+) generated through potassium persulfate by oxidation with no participation of an intermediary radical. This reduction is completed by adding electron-donating antioxidants. It seems that lipophilicity influences the activity, since both present high lipophilicity values.
as §1
The ABTS radical cation (ABTS^+•) was generated by mixing ABTS stock solution in water (7 mM) with potassium persulfate (2.45 mM) and left in the dark at room temperature for 12–16 h before use. The results are recorded immediately after the mixing solutions at 734 nm. The results were compared to the appropriate standard inhibitor Trolox (Table 4).

[5] = system: carrageenin-induced rat paw edema; assay: Inhibition of the carrageenin-induced rat paw edema; format: in vivo, Fisher 344 rats; conditions: for CPE % (reduction in the rat paw edema induced by carrageenin): 0.0057 mmol/Kg body weight, intraperitoneally, 3.5 h after carrageenin; for anti-inflammatory activity in carrageenin-induced rat paw edema (in words): intraperitoneal administration
Excerpt: The carrageenin-induced rat paw edema assay was used, as a model of acute inflammation. Inflammation induced by carrageenan is acute, non-immune, well-researched, and highly reproducible, and is described as a biphasic event. Cardinal signs of inflammation—edema, hyperalgesia, and erythema, are developed immediately following subcutaneous injection, resulting from the action of pro-inflammatory agents: bradykinin, histamine, tachykinins, complement reactive oxygen and nitrogen species. It is known that NSAIDs act during the second phase of prostaglandin release, presenting weak activity in the first phase of histamine and serotonin release.
The animals (Fisher 344 rats), were housed under standard conditions, and received a diet of commercial food pellets and water ad libitum during the maintenance, but were entirely fasted during the experiment period. Both sexes were used, while pregnant females were excluded. Each group was composed of 6–15 animals. Our studies were in accordance with recognized guidelines on animal experimentation (guidelines for the care and use of laboratory animals published by the Greek Government 160/1991, based on EU regulations 86/609). Rats were kept in the Centre of the School of Veterinary Medicine (EL54 BIO42), Aristotle University of Thessaloniki, which is registered by the official state veterinary authorities (presidential degree 56/2013, in harmony with the European Directive 2010/63/EEC). The experimental protocols were approved by the Animal Ethics Committee of the Prefecture of Central Macedonia.
Carrageenin in water as an intradermal injection of 0.1 mL 2% was used for the induction of the edema in the right hind paw of the rats, according to the previously reported method. Animals were divided in five-membered groups and the tested compounds were suspended in water (0.0057 mmol/kg body weight), with a few drops of Tween 80, ground in a mortar before administered intraperitoneally simultaneously. The rats were euthanized 3.5 h after carrageenin injection. Comparison of the change in paw weight with that in control animals (treated with water) was expressed as a percent inhibition of the oedema CPE% values using indomethacin (IMA) as a reference compound. Values CPE% are the mean from two different experiments with a standard error of the mean less than 10% (Table 5). Student’s T test was applied.

| Compound | RM (±SD) [1] | melting point [°C] | RA% 50 µM 20 min [2] [%] | RA% 50 µM 60 min [2] [%] | RA% 100 µM 20 min [2] [%] | RA% 100 µM 60 min [2] [%] | RA% 200 µM 20 min [2] [%] | RA% 200 µM 60 min [2] [%] | AAPH% 100 µM (anti-lipid peroxidation) [3] [%] | ABTS^+ % 100 µM (decolorization activity) [4] | CPE % (reduction in the rat paw edema induced by carrageenin) [5] | anti-inflammatory activity in carrageenin-induced rat paw edema (in words) [5] |
| --- | --- | --- | --- | --- | --- | --- | --- | --- | --- | --- | --- | --- |
| 5-(4-((4-bromobenzyl)oxy)phenyl)-3-(4-chlorophenyl)-4,5-dihydro-1H-pyrazole [Compound 2e] | 0.87 ± 0.07 |  | 9.5 | 13.0 | 14.8 | 17.8 | 25.6 | 30.1 | 98 | 30% | 56.0 ** % | highest anti-inflammatory activity |
| c1ccc(C2=NNC(c3cccc4ccccc34)C2)cc1 (stereo not shown) [Compound 2a, 5-(naphthalen-1-yl)-3-phenyl-4,5-dihydro-1H-pyrazole] | 0.22 ± 0.2 | 45 to 47 | 15.0 | 20.0 | 22.9 | 32.0 | 37.2 | 49.3 | 89 | no | no | inactive |
| Clc1ccc(C2=NNC(c3ccc4[nH]ccc4c3)C2)cc1 (stereo not shown) [Compound 2b, 5-(3-(4-chlorophenyl)-4,5-dihydro-1H-pyrazol-5-yl)-1H-indole] | 0.23 ± 0.03 | 96 to 98 | 19.3 | 25.0 | 26.1 | 33.6 | 34.9 | 44.4 | 78 | no | 27.0 * % | medium activity |
| Brc1ccc(COc2ccc(C3CC(c4ccccc4)=NN3)cc2)cc1 (stereo not shown) [Compound 2d, 5-(4-((4-bromobenzyl)oxy)phenyl)-3-phenyl-4,5-dihydro-1H-pyrazole] | 0.72 ± 0.06 | 98 to 100 | 6.3 | 9.5 | 19.4 | 37.4 | 9.4 | 14.9 | 96 | 15% | 63.0 ** % | highest anti-inflammatory activity |
| 1-(5-(4-((4-bromobenzyl)oxy)phenyl)-3-(thiophen-2-yl)-1H-pyrazol-1-yl)ethan-1-one [Compound 2c] | 0.68 ± 0.05 |  | 17.1 | 22.4 | 41.9 | 44.0 | 49.4 | 59.2 | 100 | no | 38.0 * % | medium activity |

More lines, main results first:

| RM (±SD) [1] | melting point [°C] | Compound | RA% 50 µM 20 min [2] [%] | RA% 50 µM 60 min [2] [%] | RA% 100 µM 20 min [2] [%] | RA% 100 µM 60 min [2] [%] | RA% 200 µM 20 min [2] [%] | RA% 200 µM 60 min [2] [%] | AAPH% 100 µM (anti-lipid peroxidation) [3] [%] | ABTS^+ % 100 µM (decolorization activity) [4] | CPE % (reduction in the rat paw edema induced by carrageenin) [5] | anti-inflammatory activity in carrageenin-induced rat paw edema (in words) [5] |
| --- | --- | --- | --- | --- | --- | --- | --- | --- | --- | --- | --- | --- |
| −0.07 ± 0.01 | 65 to 66 | CC(=O)n1nc(-c2ccccc2)cc1-c1ccc2[nH]ccc2c1 [Compound 2f, 1-(5-(1H-indol-5-yl)-3-phenyl-1H-pyrazol-1-yl)ethan-1-one] | 21.0 | 24.7 | 34.7 | 38.8 | 50.1 | 59.5 | 95 | no | 30.0 * % | medium activity |
| 0.41 ± 0.02 | 44 to 46 | CC(=O)n1nc(-c2ccccc2)cc1-c1cccc(Oc2ccccc2)c1 [Compound 2h, 1-(5-(3-phenoxyphenyl)-3-phenyl-1H-pyrazol-1-yl)ethan-1-one] | 6.7 | 9.5 | 7.8 | 9.6 | 17.2 | 20.9 | 97 | no | 16.0 * % | low activity |
| −0.59 ± 0.05 | 53 to 55 | CC(=O)n1nc(-c2ccc(Cl)cc2)cc1-c1cccc2ccccc12 [Compound 2g, 1-(3-(4-chlorophenyl)-5-(naphthalen-1-yl)-1H-pyrazol-1-yl)ethan-1-one] | 9.0 | 12.7 | 11.2 | 13.6 | 22.5 | 27.7 | 100 | no | 33.0 * % | medium activity |
